Several values for one entry are separate records, joined by “and”; a condition that tells them apart may be missing. Identical values can stand only once. Like-named read-outs stand apart in the source and are kept apart here. Residues, ends and D or L forms follow the SMILES beside them.
How the values were obtained:
[1] = system: HIV-1-mediated cell-cell fusion (H9/HIV-1IIIB cells and MT-2 cells); experiment: HIV-1-mediated cell-cell fusion, dye transfer assay; format: cell-based
Procedure: The inhibitory activities of the compounds on HIV-induced cell-cell fusion were determined using a dye transfer assay (Jiang S et al. Proc SPIE 3926:212-219, 2000). Briefly, H9/HIV-1IIIB cells were pre-labeled with a fluorescent dye, Calcein AM (Molecular Probes, Inc.), and incubated with a testing compound at a graded concentration at 37° C. for 30 min in a 96-well cell culture plate. Then the CD4^+ MT-2 cells were added to the H9/HIV-1IIIB cells at a ratio of 10:1, followed by incubation at 37° C. for 2 hrs. The fused and unfused calcein-labeled HIV-1-infected cells were counted under an inverted fluorescence microscope with an eyepiece micrometer disc.

[2] = target: gp41 six-helix bundle formation between N46 and C34-biotin (Human immunodeficiency virus type 1 group M subtype B, UniProt P04578); format: biochemical, HIV-1; details: triple combination of T-20, T-1249 and T-1144
Procedure: 6. Enzyme-linked Immunosorbent Assay (ELISA). […] The plate was then incubated for 30 min and added to horseradish peroxidase (HRP) labeled with streptavidin (SA-HRP) (ZYMED Laboratories). The plate was washed with the washing buffer (PBS containing 0.01% Tween 20) for 6 times to remove any unbound peptide. The substrate TMB was added sequentially. Absorbance at 450 nm (A450) was measured using an ELISA reader.

[3] = system: viruses that are resistant to T-20; details: viruses resistant to T-20; cited from earlier work
[4] = in combination T-20:T-1144 (4:1)
[5] = in combination T-20:T-1144 (4:1) vs alone
[6] = in combination T-20:T-1249:T-1144 (4:1:1)
[7] = in combination T-20:T-1249:T-1144 (4:1:1) vs alone
[8] = in combination T-20:T-1249:T-1144 (4:1:1), read-out: EC90 Concentration Mix
[9] = in combination T-1144:C34 (2:1)
[10] = in combination T-1144:C34 (2:1) vs alone
[11] = in combination T-1249:T-1144 (1:1)
[12] = in combination T-1249:T-1144 (1:1) vs alone
[13] = peptide tested alone, read-out: EC50 Concentration Alone
[14] = peptide tested alone, read-out: EC90 Concentration Alone
[15] = in combination T-20:C34 (8:1) vs alone
[16] = in combination T-20:Sifuvirtide (4:1)
[17] = in combination T-20:Sifuvirtide (4:1) vs alone
[18] = in combination T-20:T-1249 (4:1)
[19] = in combination T-20:T-1249 (4:1) vs alone
[20] = in combination T-20:T-1249:C34 (8:2:1)
[21] = in combination T-20:T-1249:C34 (8:2:1) vs alone
[22] = peptide tested alone, listed as T20

gp41 six-helix bundle formation between N46 and C34-biotin, sequence (P04578 536-581): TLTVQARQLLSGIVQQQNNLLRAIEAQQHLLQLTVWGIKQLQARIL

## CC[C@H](C)[C@H](NC(=O)[C@H](C)NC(=O)[C@H](CCCNC(=N)N)NC(=O)[C@H](CC(=O)O)NC(=O)[C@H](Cc1c[nH]c2ccccc12)NC(=O)[C@H](C)NC(=O)[C@H](CCC(=O)O)NC(=O)[C@H](Cc1c[nH]c2ccccc12)NC(=O)[C@@H](NC(=O)[C@@H](NC(C)=O)[C@@H](C)O)[C@@H](C)O)C(=O)N[C@@H](C)C(=O)N[C@@H](CCC(=O)O)C(=O)N[C@@H](Cc1ccc(O)cc1)C(=O)N[C@@H](C)C(=O)N[C@@H](C)C(=O)N[C@@H](CCCNC(=N)N)C(=O)N[C@H](C(=O)N[C@@H](CCC(=O)O)C(=O)N[C@@H](C)C(=O)N[C@@H](CC(C)C)C(=O)N[C@@H](CC(C)C)C(=O)N[C@@H](CCCNC(=N)N)C(=O)N[C@@H](C)C(=O)N[C@@H](CC(C)C)C(=O)N[C@@H](CCC(N)=O)C(=O)N[C@@H](CCC(=O)O)C(=O)N[C@@H](CCC(N)=O)C(=O)N[C@@H](CCC(N)=O)C(=O)N[C@@H](CCC(=O)O)C(=O)N[C@@H](CCCCN)C(=O)N[C@@H](CC(N)=O)C(=O)N[C@@H](CCC(=O)O)C(=O)N[C@@H](C)C(=O)N[C@@H](C)C(=O)N[C@@H](CC(C)C)C(=O)N[C@@H](CCCNC(=N)N)C(=O)N[C@@H](CCC(=O)O)C(=O)N[C@@H](CC(C)C)C(N)=O)[C@@H](C)CC [T-1144] (Ac-TTWEAWDRAIAEYAARIEALLRALQEQQEKNEAALREL-NH2; N-terminus and C-terminus assumed)
[1]; [4]
  EC70 Concentration Mix: 0.008 nM
  EC95 Concentration Mix: 0.013 nM
[1]; [5]
  Potency increase at EC50: 435.500 fold
  Potency increase at EC70: 444.250 fold
  Potency increase at EC90: > 438 fold and 439.455 fold
  Potency increase at EC95: 458.462 fold
[1]; [6]
  EC70 Concentration Mix: 0.005 nM
  EC95 Concentration Mix: 0.007 nM
[1]; [7]
  Potency increase at EC50: 653.250 fold
  Potency increase at EC70: 710.800 fold
  Potency increase at EC90: 805.667 fold
  Potency increase at EC95: 851.429 fold
[1]; [8]
  EC90: 0.006 nM
[1]; [9]
  EC70 Concentration Mix: 0.408 nM
  EC95 Concentration Mix: 0.659 nM
[1]; [10]
  Potency increase at EC50: 8.511 fold
  Potency increase at EC70: 8.711 fold
  Potency increase at EC95: 9.044 fold
[1]; in combination T-1144:C34 (2:1), read-out: EC90 Concentration Mix
  EC90: 0.543 nM
[1]; [11]
  EC70 Concentration Mix: 0.232 nM
  EC95 Concentration Mix: 0.374 nM
[1]; [12]
  Potency increase at EC50: 15.017 fold
  Potency increase at EC70: 15.319 fold
  Potency increase at EC90: 15.695 fold
  Potency increase at EC95: 15.936 fold
[1]; in combination T-1249:T-1144 (1:1), read-out: EC90 Concentration Mix
  EC90: 0.308 nM
[1]; peptide tested alone
  EC70 Concentration Alone: 3.554 nM
  EC95 Concentration Alone: 5.960 nM
[1]; [13]
  EC50: 2.61 nM
[1]; [14]
  EC90: 4.83 nM
[2]
  Dose reduction, six-helix bundle formation: ~2 fold
[3]
  activity relative to T-20: thousands fold more active than T-20

## enfuvirtide
[1]; in combination T-20:C34 (8:1)
  EC70 Concentration Mix: 0.427 nM
  EC95 Concentration Mix: 0.682 nM
[1]; [15]
  Potency increase at EC50: 61.108 fold
  Potency increase at EC70: 62.834 fold
  Potency increase at EC95: 65.594 fold
[1]; in combination T-20:C34 (8:1), read-out: EC50 Concentration Mix
  EC50: 0.324 nM
[1]; in combination T-20:C34 (8:1), read-out: EC90 Concentration Mix
  EC90: 0.564 nM
[1]; [16]
  EC70 Concentration Mix: 2.356 nM
  EC95 Concentration Mix: 3.537 nM
[1]; [17]
  Potency increase at EC50: 8.928 fold
  Potency increase at EC70: 8.863 fold
  Potency increase at EC95: 8.757 fold
[1]; in combination T-20:Sifuvirtide (4:1), read-out: EC50 Concentration Mix
  EC50: 1.85 nM
[1]; in combination T-20:Sifuvirtide (4:1), read-out: EC90 Concentration Mix
  EC90: 3 nM
[1]; [4]
  EC70 Concentration Mix: 0.033 nM
  EC95 Concentration Mix: 0.052 nM
[1]; [5]
  Potency increase at EC50: 791.960 fold
  Potency increase at EC70: 813.030 fold
  Potency increase at EC95: 860.288 fold
[1]; in combination T-20:T-1144 (4:1), read-out: EC50 Concentration Mix
  EC50: 0.025 nM
[1]; in combination T-20:T-1144 (4:1), read-out: EC90 Concentration Mix
  EC90: 0.043 nM
[1]; [18]
  EC70 Concentration Mix: 0.051 nM
  EC95 Concentration Mix: 0.082 nM
[1]; [19]
  Potency increase at EC50: 521.026 fold
  Potency increase at EC70: 526.078 fold
  Potency increase at EC95: 545.549 fold
[1]; in combination T-20:T-1249 (4:1), read-out: EC50 Concentration Mix
  EC50: 0.038 nM
[1]; in combination T-20:T-1249 (4:1), read-out: EC90 Concentration Mix
  EC90: 0.068 nM
[1]; [20]
  EC70 Concentration Mix: 0.070 nM
  EC95 Concentration Mix: 0.108 nM
[1]; [21]
  Potency increase at EC50: 366.648 fold
  Potency increase at EC70: 383.286 fold
  Potency increase at EC90: more than 399 fold
  Potency increase at EC95: 414.213 fold
[1]; in combination T-20:T-1249:C34 (8:2:1) vs alone, listed as T20
  Potency increase at EC90: 399.648 fold
[1]; in combination T-20:T-1249:C34 (8:2:1), read-out: EC50 Concentration Mix
  EC50: 0.054 nM
[1]; in combination T-20:T-1249:C34 (8:2:1), read-out: EC90 Concentration Mix
  EC90: 0.091 nM
[1]; [6]
  EC70 Concentration Mix: 0.019 nM
  EC95 Concentration Mix: 0.029 nM
[1]; [7]
  Potency increase at EC50: 1319.933 fold
  Potency increase at EC70: 1412.105 fold
  Potency increase at EC95: 1542.586 fold
[1]; in combination T-20:T-1249:T-1144 (4:1:1), read-out: EC50 Concentration Mix
  EC50: 0.015 nM
[1]; [8]
  EC90: 0.025 nM
[1]; peptide tested alone
  EC70 Concentration Alone: 26.830 nM and 20.882 nM
  EC95 Concentration Alone: 44.735 nM and 30.973 nM
[1]; [22]
  EC70 Concentration Alone: 26.830 nM
  EC95 Concentration Alone: 44.735 nM
[1]; [13]
  EC50: 19.8 nM and 16.5 nM
[1]; [14]
  EC90: 36.4 nM and 26.4 nM

Reference: patent US7919101B2 (priority 2008, dated 2011)
